Data from patent publication US20040176468A1 (Wyeth, priority 1999, published 2004).
Counter-ions that a name gives are not always drawn.

Biological target: NE uptake (Rattus norvegicus, UniProt Q63380)
Assay: Neurotransmitter uptake inhibition: NE uptake, crude synaptosomal preparation
Format: biochemical
Details: rat cortex crude synaptosomal preparation; for IC50: 0.1 μM 3H-NE, 37° C. for 6 minutes
Procedure: Male Sprague-Dawley rats (180-260 g, Charles River) were used in all neurochemical assays. Rats were housed in temperature-controlled quarters on a 12 hr light/12 hr dark cycle with free access to food and water.
Neurotransmitter Uptake Inhibition
Uptake experiments were performed using a crude synaptosomal preparation made from the brain tissue of adult male Sprague-Dawley rats. The cortex of 1 rat for NE and 5-HT uptake was removed on ice and homogenized in 20 volumes of 0.32 M sucrose/g tissue weight using a Potter-Elvehjem teflon homogenizer (3 strokes at 840 rpm). The homogenate was then centrifuged for 12 minutes at 1,000×g at 0-4° C. The resulting supernatant was decanted into a chilled glass beaker and kept on ice until assayed. Protein concentration was determined by the method of Lowry et al. (1).
For these experiments, all compounds were run in duplicate in concentrations of 0.003-30.0 μM. Each tube received buffer (790 μl in drug tubes, 800 μl in control tubes), 10 μl of drug or standard. (0.1 μM DMI for NE uptake and 3.0 μM zimelidine HCl for 5-HT uptake), 100 μl isotope (0.1 μM ^3H—NE and 0.05 μM ^14C-5-HT), and 100 μl tissue. Tubes were incubated at 37° C. for 6 minutes. Incubation was terminated by the addition of 2.5 ml buffer followed by vacuum filtration using a Brandel filtration manifold with Whatman GF/B glass fiber filters and a second wash with 2.5 ml buffer. Filters were added to 10 ml Hydrofluor, shaken for 15 minutes and counted in a Packard 460CD scintillation counter equipped with dual-label dpm data reduction. Results were expressed as pmol uptake/mg protein/min.

Sequence of NE uptake (Q63380 1-617): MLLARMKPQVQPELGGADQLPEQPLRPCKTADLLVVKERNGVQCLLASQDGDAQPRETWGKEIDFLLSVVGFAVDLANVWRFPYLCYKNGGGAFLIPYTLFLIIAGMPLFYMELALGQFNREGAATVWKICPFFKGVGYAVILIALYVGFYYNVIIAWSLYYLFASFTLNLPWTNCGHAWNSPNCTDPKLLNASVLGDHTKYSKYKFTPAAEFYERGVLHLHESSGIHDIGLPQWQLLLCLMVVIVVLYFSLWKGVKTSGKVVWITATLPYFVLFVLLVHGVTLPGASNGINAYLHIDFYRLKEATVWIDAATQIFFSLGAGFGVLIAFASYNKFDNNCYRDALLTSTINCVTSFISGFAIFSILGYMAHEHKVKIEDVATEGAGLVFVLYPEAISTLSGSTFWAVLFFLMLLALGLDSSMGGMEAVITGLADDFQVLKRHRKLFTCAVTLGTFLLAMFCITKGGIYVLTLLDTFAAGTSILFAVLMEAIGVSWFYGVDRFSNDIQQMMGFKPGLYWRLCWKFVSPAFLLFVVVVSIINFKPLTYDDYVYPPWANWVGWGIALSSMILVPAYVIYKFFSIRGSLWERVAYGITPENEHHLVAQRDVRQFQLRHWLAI

inhibition at 0.3 µM (at 0.3 μM)	IC50	Compound
75%		CN(C)CC(c1ccc(O)cc1)C1(O)CCCCC1 (racemic) [O-Desmethyl venlafaxine, 4-[1-(2-dimethylamino)-2-(1-hydroxycyclohexyl)-ethyl]-phenol]
	720 nM	CN(C)C[C@H](c1ccc(O)cc1)C1(O)CCCCC1 [(+)O-Desmethyl venlafaxine, S (+)-4-[2-(Dimethylamino)-1-(1-hydroxycyclohexyl)ethyl]phenol fumarate hydrate salt]
	270 nM	CN(C)C[C@@H](c1ccc(O)cc1)C1(O)CCCCC1 [(−)O-Desmethyl venlafaxine, R(−)-4-[2-(Dimethylamino)-1-(1-hydroxycyclohexyl)ethyl]phenol fumarate hydrate salt]
